Reference: patent US7754692B2, “Arginyl-glutamine dipeptide for treatment of pathological vascular proliferation” (University of Florida Research Foundation, Inc., priority 2003, dated 2010)
Peptide text beside a SMILES is read from it.

How the values were obtained:
[1] = test system: vascular endothelial growth factor (VEGF); assay: Retinal cell culture model, vascular endothelial growth factor (VEGF); assay type: cell-based
[2] = test system: pre-retinal neovascularization; assay: Neonatal mouse hyperoxia model of retinopathy of prematurity, counting pre-retinal neovascularization on stained sections; assay type: in vivo, mice
Experimental: Neonatal mice were exposed to a period of hyperoxia to induce retinal angiogenesis that mimics retinopathy of prematurity. An Arginyl-glutamine dipeptide was administered intraperitoneally twice daily during the period when neovascularization occurs in this model, days 12 through 17.
On day 17 the animals are sacrificed and degree of angiogenesis was quantified by counting pre-retinal neovascularization on stained sections from treated and untreated animals.

retinal cell culture = assay: Retinal cell culture model, transepithelial resistance (TER); assay type: cell-based

Compound: N=C(N)NCCC[C@H](N)C(=O)N[C@@H](CCC(N)=O)C(=O)O [argininyl-glutamine, arginyl-glutamine] (H-Arg-Gln-OH)
- vascular endothelial growth factor (VEGF) [1]: decreased
- reduction in preretinal neovascularization ([2]; neonatal mice after hyperoxia, intraperitoneally twice daily days 12 through 17, read on day 17, combined data from two experiments (FIG. 1)): 80%
- nuclei (associated with retinopathy) compared to the vehicle ([2]; repeat experiment with different doses of the dipeptide after oxygen stress challenge, FIG. 2): clear decrease
- transepithelial resistance (TER) (retinal cell culture): increased
